Assay results from patent publication US10273210B2, “Pyridine compound” (Sumitomo Chemical Company, Limited, priority 2015, dated 2019).

Experiments:
[1] = tested on: cotton aphid (Aphis gossypii); assay: Test Example 1: foliar spray on cucumber seedlings infested with cotton aphid, controlling value; assay type: in vivo; details: 120 h, spray 10 mL/seedling on cucumber, 5 days after spraying, 25° C.
Source text: Controlling value (%)={1−(Cb×Tai)/(Cai×Tb)}×100 wherein the symbols in the formula represent the following meanings. Cb: Number of the test insects in untreated group; Cai: Number of the surviving insects at the time of the investigation in untreated group; Tb: Number of the test insects in treated group; Tai: Number of the surviving insects at the time of the investigation in treated group; Here the “untreated group” represents a group where a similar treatment procedure to that of the treated group except not using each test compound is done.

[2] = tested on: housefly (Musca domestica); assay: whole plant or invertebrate; assay type: in vivo; details: 24 h, read-out: mortality of insects
Protocol: A bottom of a plastic cup having a diameter of 5.5 cm is lined with the same size of a filter paper, and each of the diluted solutions (0.7 mL) is added dropwise on the filter paper, and sucrose (30 mg) is homogeneously placed into the plastic cup as a bait.

Row | SMILES | pest or weed control at 500 ppm [1] [%] | pest or weed control at 200 ppm [1] [%] | mortality at 500 ppm [2] [%]
1 | CCS(=O)(=O)c1cc(N)ccc1-c1ccc(OCC(F)(F)C(F)(F)F)cn1 [Present compound 53] | ≥ 90 |  | 
2 | CCSc1cc(C#N)ccc1-c1ccc(OCC(F)(F)C(F)(F)F)cn1 [Present compound 59] | ≥ 90 | ≥ 90 | 
3 | CCS(=O)(=O)c1cc(C#N)ccc1-c1ccc(OCC(F)(F)C(F)(F)F)cn1 [Present compound 60] | ≥ 90 | ≥ 90 | 
4 | CCS(=O)(=O)c1cc(C(=O)O)ccc1-c1ccc(OCC(F)(F)C(F)(F)F)cn1 [Present compound 61] | ≥ 90 | ≥ 90 | 
5 | CCS(=O)(=O)c1ccc(N)cc1-c1ccc(OCC(F)(F)C(F)(F)F)cn1 [Present compound 62] | ≥ 90 | ≥ 90 | 
6 | CCS(=O)(=O)c1cc(NC(=O)C2CC2)ccc1-c1ccc(OCC(F)(F)C(F)(F)F)cn1 [Present compound 63] | ≥ 90 |  | 
7 | CCS(=O)(=O)c1cc(-n2cncn2)ccc1-c1ccc(OCC(F)(F)C(F)(F)F)cn1 [Present compound 67] | ≥ 90 | ≥ 90 | ≥ 100
8 | CCS(=O)(=O)c1cc(-c2ccccn2)ccc1-c1ccc(OCC(F)(F)C(F)(F)F)cn1 [Present compound 68] | ≥ 90 | ≥ 90 | 
